# Tested on: MMP1
# Experiment: MMP1 immunofluorescence on human skin explants after repeated UVA irradiation
# Assay type: cell-based
# Details: skin explant, (Ia) 100 ppm
# Description: In these examples, the protective properties of the compound (Ia) against the damage caused to the DNA and to the extracellular matrix by repeated UVA irradiation, are measured on explants of human skin (NATIVESKIN, Genoskin).
# Upon reception of the explants, the latter are topically coated with Carbopol® (Lubrizol)+DMSO for the non-UVA control (CTL without stress) and for the control with stress by UVAs (CTL UVA), and with Carbopol®+compound (Ia) at 100 ppm for the test.
# Over three days, the cells are subjected to three stresses with UVAs at a rate of 50 joules per square centimetre.
# The first irradiation takes place 24 hours after the treatments. The products are present before, during and after the irradiation. The control without stress is wrapped in aluminium and also placed in the irradiator.
# During the irradiation, the explants inserted are disposed in a petri dish with PBS. Fresh medium (Genoskin Culture medium) is added after the irradiation.
# After the third day of irradiation, the explants are cultivated for 24 hours, then collected and fixed for 48 hours in formalin (Sigma). The samples are included in paraffin and cut.
# A marking of the protein MMP1 by immunofluorescence on a paraffin section is carried out.
# The samples are prepared for the fluorescent marking. […]
# The sections are mounted on a slide and the fluorescence is quantified using a microscope (Leica DM5000B).
structure (smiles),measurement,setting,value
Cc1ncc(CO)c(CNC(=O)/C=C/c2ccc(O)c(O)c2)c1O [Compound (Ia)],Average fluorescence intensity of the MMP1 marking (AU),"CTL UVA 165.2, CTL without stress 141.6",146.2 AU
same,Cells positive for MMP1 based on 100%,"relative to CTL without stress, CTL UVA +16.7%",+3.2%
